These results are taken from article PMC11870037 (Molecules, 2024).

Molecules are shown by their SMILES.

The test system of one data set is female rats. To be noted: females; cited from earlier work.
For a further data set, the target named is adrenergic α1 receptor. As to the kind of experiment: Adrenergic α1 receptor binding assay ([3H]prazosin). Particulars: rat cerebral cortex, means ± SEM of three experiments, read-out: Receptor Affinity Ki ± SEM α1.
Data set [1] concerns mice. To be noted: oral, immobility duration.
The test system of data set [2] is mice. As to the kind of experiment: Tail suspension test (TST). The format is in vivo, mouse. To be noted: oral, immobility duration.

As usually defined, the LD50 is the dose expected to kill half of the subjects tested. As usually defined, the Ki is a dissociation constant, usually derived from enzyme kinetics or from competition with a known ligand. As for `CNCC[C@H](Oc1cccc2ccccc12)c1cccs1` [Duloxetine, reference compound], the LD50 in the data set with female rats is 279 mg/kg. In addition, the Ki on adrenergic α1 receptor came out at 1010 ± 97.8 nM. For the same compound, the “minimal effective dose (MED) in FST” value in the data set with mice [1] was 16 mg/kg. In addition, the “minimal effective dose (MED) in TST” value in the data set on mice [2] was 16 mg/kg.
